Columns and labels:
Rattus norvegicus [1] = test: Ability to stimulate intestinal-calcium transport by the administration of compound in rats at a concentration of 50 pmol at 4 hr.; assay type: functional, Intestine
Rattus norvegicus [2] = test: Ability to mobilize Bone-Calcium transport, following the administration of compound in rats at a concentration of 5 pmol at 4 hr.; assay type: functional, organism-based
Rattus norvegicus [3] = test: Ability to stimulate intestinal-calcium transport by the administration of compound in rats at a concentration of 5 pmol at 72 hr.; assay type: functional, Intestine
Rattus norvegicus [4] = test: Ability to stimulate intestinal-calcium transport by the administration of compound in rats at a concentration of 5000 pmol at 13 hr.; assay type: functional, Intestine
Rattus norvegicus [5] = test: Ability to stimulate intestinal-calcium transport by the administration of compound in rats at a concentration of 5000 pmol at 24 hr.; assay type: functional, Intestine
Rattus norvegicus [6] = test: Ability to mobilize Bone-Calcium transport, following the administration of compound in rats at a concentration of 5000 pmol at 4 hr.; assay type: functional, organism-based
Rattus norvegicus [7] = test: Ability to mobilize Bone-Calcium transport, following the administration of compound in rats at a concentration of 500 pmol at 13 hr.; assay type: functional, organism-based
Rattus norvegicus [8] = test: Ability to mobilize Bone-Calcium transport, following the administration of compound in rats at a concentration of 500 pmol at 24 hr.; assay type: functional, organism-based
Rattus norvegicus [9] = test: Ability to mobilize Bone-Calcium transport, following the administration of compound in rats at a concentration of 500 pmol at 2 hr.; assay type: functional, organism-based
Rattus norvegicus [10] = test: Ability to mobilize Bone-Calcium transport, following the administration of compound in rats at a concentration of 500 pmol at 47 hr.; assay type: functional, organism-based
Rattus norvegicus [11] = test: Ability to mobilize Bone-Calcium transport, following the administration of compound in rats at a concentration of 500 pmol at 4 hr.; assay type: functional, organism-based
Rattus norvegicus [12] = test: Ability to mobilize Bone-Calcium transport, following the administration of compound in rats at a concentration of 50 pmol at 24 hr.; assay type: functional, organism-based
Rattus norvegicus [13] = test: Ability to mobilize Bone-Calcium transport, following the administration of compound in rats at a concentration of 50 pmol at 2 hr.; assay type: functional, organism-based
Rattus norvegicus [14] = test: Ability to mobilize Bone-Calcium transport, following the administration of compound in rats at a concentration of 50 pmol at 47 hr.; assay type: functional, organism-based
Rattus norvegicus [15] = test: Ability to mobilize Bone-Calcium transport, following the administration of compound in rats at a concentration of 50 pmol at 4 hr.; assay type: functional, organism-based
Rattus norvegicus [16] = test: Ability to mobilize Bone-Calcium transport, following the administration of compound in rats at a concentration of 5 pmol at 24 hr.; assay type: functional, organism-based
Rattus norvegicus [17] = test: Ability to mobilize Bone-Calcium transport, following the administration of compound in rats at a concentration of 5 pmol at 2 hr.; assay type: functional, organism-based
Rattus norvegicus [18] = test: Ability to stimulate intestinal-calcium transport by the administration of compound in rats at a concentration of 5 pmol at 24 hr.; assay type: functional, Intestine
Rattus norvegicus [19] = test: Ability to stimulate intestinal-calcium transport by the administration of compound in rats at a concentration of 5 pmol at 2 hr.; assay type: functional, Intestine
Rattus norvegicus [20] = test: Ability to stimulate intestinal-calcium transport by the administration of compound in rats at a concentration of 5 pmol at 4 hr.; assay type: functional, Intestine
Rattus norvegicus [21] = test: Ability to stimulate intestinal-calcium transport by the administration of compound in rats at a concentration of 50 pmol at 24 hr.; assay type: functional, Intestine
Rattus norvegicus [22] = test: Ability to stimulate intestinal-calcium transport by the administration of compound in rats at a concentration of 5000 pmol at 2 hr.; assay type: functional, Intestine
Rattus norvegicus [23] = test: Ability to stimulate intestinal-calcium transport by the administration of compound in rats at a concentration of 5000 pmol at 4 hr.; assay type: functional, Intestine
Rattus norvegicus [24] = test: Ability to stimulate intestinal-calcium transport by the administration of compound in rats at a concentration of 500 pmol at 24 hr.; assay type: functional, Intestine
Rattus norvegicus [25] = test: Ability to stimulate intestinal-calcium transport by the administration of compound in rats at a concentration of 500 pmol at 2 hr.; assay type: functional, Intestine
Rattus norvegicus [26] = test: Ability to stimulate intestinal-calcium transport by the administration of compound in rats at a concentration of 500 pmol at 4 hr.; assay type: functional, Intestine
Rattus norvegicus [27] = test: Ability to stimulate intestinal-calcium transport by the administration of compound in rats at a concentration of 500 pmol at 72 hr.; assay type: functional, Intestine
Rattus norvegicus [28] = test: Ability to mobilize Bone-Calcium transport, following the administration of compound in rats at a concentration of 5000 pmol at 24 hr.; assay type: functional, organism-based
Rattus norvegicus [29] = test: Ability to mobilize Bone-Calcium transport, following the administration of compound in rats at a concentration of 5000 pmol at 2 hr.; assay type: functional, organism-based
Gallus gallus = organism: Gallus gallus; test: Bind to chick intestinal Vitamin D3 receptor for 1,25-(OH)2-D3
[30] = target: T1, Vitamin D-binding protein (Rattus norvegicus) (UniProt P04276); test: Displacement of [3H]25-(OH)-D3 from rat plasma Vitamin D binding protein; assay type: cell-free
T1 sequence (whole entry): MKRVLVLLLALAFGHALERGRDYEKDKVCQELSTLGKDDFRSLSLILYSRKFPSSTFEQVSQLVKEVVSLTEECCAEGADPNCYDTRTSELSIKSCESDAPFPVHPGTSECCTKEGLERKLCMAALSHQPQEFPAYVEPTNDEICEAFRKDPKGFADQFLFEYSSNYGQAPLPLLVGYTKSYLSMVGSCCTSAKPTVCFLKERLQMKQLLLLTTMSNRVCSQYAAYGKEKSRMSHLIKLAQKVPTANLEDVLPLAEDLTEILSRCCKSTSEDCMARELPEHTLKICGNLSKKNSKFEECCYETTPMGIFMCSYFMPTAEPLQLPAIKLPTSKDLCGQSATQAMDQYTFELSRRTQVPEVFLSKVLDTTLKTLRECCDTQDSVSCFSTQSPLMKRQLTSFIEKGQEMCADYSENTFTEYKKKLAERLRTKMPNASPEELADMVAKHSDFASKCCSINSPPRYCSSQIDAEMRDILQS

Rattus norvegicus [31] = test: Ability to stimulate intestinal-calcium transport by the administration of compound in rats at a concentration of 50 pmol at 2 hr.; assay type: functional, Intestine
Rattus norvegicus [32] = test: Ability to stimulate intestinal-calcium transport by the administration of compound in rats at a concentration of 50 pmol at 48 hr.; assay type: functional, Intestine
Rattus norvegicus [33] = test: Ability to mobilize Bone-Calcium transport, following the administration of compound in rats at a concentration of 500 pmol at 48 hr.; assay type: functional, organism-based
Rattus norvegicus [34] = test: Ability to mobilize Bone-Calcium transport, following the administration of compound in rats at a concentration of 5 pmol at 12 hr.; assay type: functional, organism-based
Rattus norvegicus [35] = test: Ability to stimulate intestinal-calcium transport by the administration of compound in rats at a concentration of 5000 pmol at 69 hr.; assay type: functional, Intestine
Rattus norvegicus [36] = test: Ability to stimulate intestinal-calcium transport by the administration of compound in rats at a concentration of 500 pmol at 12 hr.; assay type: functional, Intestine
Rattus norvegicus [37] = test: Ability to mobilize Bone-Calcium transport, following the administration of compound in rats at a concentration of 5000 pmol at 12 hr.; assay type: functional, organism-based

Structure (SMILES) | Serosal/Mucosal Ca (Rattus norvegicus [1]) | Serum Ca2+ (Rattus norvegicus [2]) | Serosal/Mucosal Ca (Rattus norvegicus [5]) | Serum Ca2+ (Rattus norvegicus [6]) | Serum Ca2+ (Rattus norvegicus [8]) | Serum Ca2+ (Rattus norvegicus [9]) | Serum Ca2+ (Rattus norvegicus [11]) | Serum Ca2+ (Rattus norvegicus [12]) | Serum Ca2+ (Rattus norvegicus [13]) | Serum Ca2+ (Rattus norvegicus [15]) | Serum Ca2+ (Rattus norvegicus [16]) | Serum Ca2+ (Rattus norvegicus [17]) | Serosal/Mucosal Ca (Rattus norvegicus [18]) | Serosal/Mucosal Ca (Rattus norvegicus [19]) | Serosal/Mucosal Ca (Rattus norvegicus [20]) | Serosal/Mucosal Ca (Rattus norvegicus [21]) | Serosal/Mucosal Ca (Rattus norvegicus [22]) | Serosal/Mucosal Ca (Rattus norvegicus [23]) | Serosal/Mucosal Ca (Rattus norvegicus [24]) | Serosal/Mucosal Ca (Rattus norvegicus [25]) | also measured
C=C1CC[C@H](O)C/C1=C/C=C1\CCC[C@]2(C)[C@@H]([C@H](C)CCC(F)(F)C(O)(CC)CC)CC[C@@H]12 | 1.97 | 4.38 mg/dL | 8.65 | 4.56 mg/dL | 5.1 mg/dL | 4.22 mg/dL | 4.4 mg/dL | 4.72 mg/dL | 4.28 mg/dL | 4.18 mg/dL | 4.9 mg/dL | 4.4 mg/dL | 2.34 | 1.89 | 1.61 | 6.16 | 3.77 | 3.18 | 7.11 | 2.58 | Serosal/Mucosal Ca (Rattus norvegicus [3]): 2.2; Serosal/Mucosal Ca (Rattus norvegicus [4]): 4.84; Serum Ca2+ (Rattus norvegicus [7]): 5.14 mg/dL; Serum Ca2+ (Rattus norvegicus [10]): 4.5 mg/dL; Serum Ca2+ (Rattus norvegicus [14]): 4.63 mg/dL; Serosal/Mucosal Ca (Rattus norvegicus [26]): 2.27; Serosal/Mucosal Ca (Rattus norvegicus [27]): 7.29; Serum Ca2+ (Rattus norvegicus [28]): 5.9 mg/dL; Serum Ca2+ (Rattus norvegicus [29]): 4.78 mg/dL; B50 (Gallus gallus): 52.8 nM; B50 [30]: 25.8 nM; Serosal/Mucosal Ca (Rattus norvegicus [31]): 1.8
C=C1/C(=C\C=C2/CCC[C@]3(C)[C@@H]([C@H](C)CCC(F)(F)C(O)(CC)CC)CC[C@@H]23)C[C@@H](O)C[C@@H]1O | 4.22 | 4.28 mg/dL | 5.32 | 5.48 mg/dL | 5.58 mg/dL | 4.8 mg/dL | 5.1 mg/dL | 4.74 mg/dL | 4.42 mg/dL | 5 mg/dL | 4.38 mg/dL | 4.5 mg/dL | 2.14 | 2.08 | 3.36 | 3.93 | 3.7 | 4.84 | 7.3 | 4.55 | Serosal/Mucosal Ca (Rattus norvegicus [32]): 4.25; Serum Ca2+ (Rattus norvegicus [33]): 4.94 mg/dL; Serum Ca2+ (Rattus norvegicus [34]): 4.34 mg/dL; Serosal/Mucosal Ca (Rattus norvegicus [35]): 8.84; Serosal/Mucosal Ca (Rattus norvegicus [36]): 8.92; Serosal/Mucosal Ca (Rattus norvegicus [26]): 6.44; Serum Ca2+ (Rattus norvegicus [37]): 6.4 mg/dL; Serum Ca2+ (Rattus norvegicus [28]): 6.36 mg/dL; Serum Ca2+ (Rattus norvegicus [29]): 5.1 mg/dL; B50 (Gallus gallus): 0.495 nM; B50 [30]: 2200 nM; Serosal/Mucosal Ca (Rattus norvegicus [31]): 2.27
C=C1CC[C@H](O)C/C1=C/C=C1\CCC[C@]2(C)[C@@H]([C@H](C)CCCC(C)(C)O)CC[C@@H]12 [CALCIFEDIOL ANHYDROUS] | 2.17 | 4.14 mg/dL | 7.19 | 4.12 mg/dL | 5.5 mg/dL | 4.66 mg/dL | 4.22 mg/dL | 5.06 mg/dL | 4.48 mg/dL | 4.1 mg/dL | 4.34 mg/dL | 4.32 mg/dL | 2.84 | 2.03 | 2.42 | 4.8 | 2.93 | 3.31 | 7.19 | 2.22 | Serosal/Mucosal Ca (Rattus norvegicus [3]): 3.59; Serosal/Mucosal Ca (Rattus norvegicus [4]): 5.43; Serum Ca2+ (Rattus norvegicus [7]): 6.22 mg/dL; Serum Ca2+ (Rattus norvegicus [10]): 5.12 mg/dL; Serum Ca2+ (Rattus norvegicus [14]): 4.68 mg/dL; Serosal/Mucosal Ca (Rattus norvegicus [26]): 2.83; Serosal/Mucosal Ca (Rattus norvegicus [27]): 9.89; Serum Ca2+ (Rattus norvegicus [28]): 5.82 mg/dL; Serum Ca2+ (Rattus norvegicus [29]): 4.64 mg/dL; B50 (Gallus gallus): 282 nM; B50 [30]: 3.77 nM; Serosal/Mucosal Ca (Rattus norvegicus [31]): 1.75
C=C1/C(=C\C=C2/CCC[C@]3(C)[C@@H]([C@H](C)CCCC(C)(C)O)CC[C@@H]23)C[C@@H](O)C[C@@H]1O [CALCITRIOL] | 5.09 | 4.32 mg/dL | 4.71 | 5.6 mg/dL | 4.98 mg/dL | 4.76 mg/dL | 5.32 mg/dL | 5 mg/dL | 4.35 mg/dL | 4.58 mg/dL | 4.58 mg/dL | 4.4 mg/dL | 2.95 | 2.21 | 2.53 | 4.34 | 3.12 | 7.66 | 3.5 | 3.1 | Serosal/Mucosal Ca (Rattus norvegicus [32]): 4.71; Serum Ca2+ (Rattus norvegicus [33]): 4.35 mg/dL; Serum Ca2+ (Rattus norvegicus [34]): 4.38 mg/dL; Serosal/Mucosal Ca (Rattus norvegicus [35]): 4.99; Serosal/Mucosal Ca (Rattus norvegicus [36]): 4.06; Serosal/Mucosal Ca (Rattus norvegicus [26]): 6.6; Serum Ca2+ (Rattus norvegicus [37]): 6.14 mg/dL; Serum Ca2+ (Rattus norvegicus [28]): 5.5 mg/dL; Serum Ca2+ (Rattus norvegicus [29]): 4.84 mg/dL; B50 (Gallus gallus): 0.0725 nM; B50 [30]: 45.3 nM; Serosal/Mucosal Ca (Rattus norvegicus [31]): 2.5

Source: ChEMBL document CHEMBL1125035, “Synthesis and biological activity of novel vitamin D analogues: 24,24-difluoro-25-hydroxy-26,27-dimethylvitamin D3 and 24,24-difluoro-1 alpha,25-dihydroxy-26,27-dimethylvitamin D3” (1990)
